Patent US20090227619A1, “Harmine derivatives, intermediates used in their preparations, preparation processes and use therefo” (priority 2003, published 2009)
Where two headings read alike, the source gives them in different places.

Columns and labels:
[1] = tested on: Lovo; test: In vitro cytotoxicity, IC50 by MTT method, Lovo; assay type: cell-based; settings: Lovo cell strain, read-out: IC50 Lovo
Method: (§1) Culture medium powder RPMI1640 was dissolved in a proper amount of tri-distilled water according to the instruction of the product. […] It was the basic culture solution. The complete culture solution was added with FBS having a final concentration of 10%, 100 U/ml penicillin and 100 µg/ml streptomycin. The solution was fully stirred by a magnetic blender, and the pH of the solution was adjusted to 6.8-7.0. The volume was kept constant. After being filtered and disinfected, the solution was kept into several containers which were sealed and stored at 4° C.
(§2) The cells were placed in a culture dish followed by the addition of complete culture liquid RPMI1640 and then cultured in a incubator comprising 5% CO2 at 37° C. In the exponential growth phase, the cells grew vigorously. If the culture liquid became yellow, the liquid should be replaced instantly.
(§3) The cells, at a concentration of 10^5/ml, were inoculated at a 96-pore culture plate. In each pore, 100 μl cells were inoculated. The cells were placed in a CO2 incubator until the cells were in the logarithmic growth phase. The samples to be tested were added according to the preset concentration gradient. For each gradient, the test was conducted at least three times. An equivalent amount of solvent for dissolving the samples was added in the control group. After 48 h of culture, each pore was added 20 μl MTT (5 mg/ml). The cells were cultured at 37° C. for 4 h. After the supernatant was carefully removed, 100 μl DMSO was added in each pore. The plate was agitated for about 10 minutes such that the precipitates were dissolved. After that, OD value was identified with a Microplate Reader at the wavelength of 490 nm. The survival rate of the cells at various concentrations was calculated according to the following formula:
(§4) Survival rate %=average OD value of the sample group/average OD value of the control group×100%
(§5) Plots of log survival rate of the cells vs. concentration of the medicament were constructed, and the IC50 value of each sample was calculated according to graphing methods.

[2] = tested on: BGC-823; test: In vitro cytotoxicity, IC50 by MTT method, BGC-823; assay type: cell-based; settings: BGC823 cell strain, read-out: IC50 BGC823
Method: as §1, §2, §3, §4, §5

[3] = tested on: HepG2; test: In vitro cytotoxicity, IC50 by MTT method, HepG2; assay type: cell-based, human; settings: HepG2 cell strain, read-out: IC50 HepG2
Method: as §1, §2, §3, §4, §5

[4] = tested on: Bel-7402; test: In vitro cytotoxicity, IC50 by MTT method, Bel-7402; assay type: cell-based; settings: Bel7402 cell strain, read-out: IC50 Bel7402
Method: as §1, §2, §3, §4, §5

[5] = tested on: Hela; test: In vitro cytotoxicity, IC50 by MTT method, Hela; assay type: cell-based; settings: Hela cell strain, read-out: IC50 Hela
Method: as §1, §2, §3, §4, §5

[6] = tested on: NIH3T3; test: In vitro cytotoxicity, IC50 by MTT method, NIH3T3; assay type: cell-based; settings: NIH3T3 cell strain, read-out: IC50 NIH3T3
Method: as §1, §2, §3, §4, §5

[7] = tested on: PLA-801; test: In vitro cytotoxicity, IC50 by MTT method, PLA-801; assay type: cell-based; settings: PLA-801 cell strain; read-out: IC50 PLA-801
Method: as §1, §2, §3, §4, §5

[8] = tested on: Kunming mice;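 also: acute toxicity in Kunming mice grouped by sex, one intraperitoneal dose at five graded levels in Tween-80 plus 0.5% CMC-Na, deaths monitored over two weeks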
[9] = tested on: Lewis lung cancer; settings: Lewis lung cancer; for Body weight of the animals, end, First time / Body weight of the animals, end, Second time: ip × 10qd;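 as to all read-outs here: mice implanted subcutaneously in the axilla with Lewis lung tumor cells, treated starting the following day, killed roughly three weeks after implantation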
[10] = tested on: S180 sarcoma; settings: S180 sarcoma; for Body weight of the animals, beginning, First time / Body weight of the animals, end, First time / Inhibition rate, First time / Weight of the tumor X ± SD, First time / Body weight of the animals, beginning, Second time / Body weight of the animals, end, Second time / Inhibition rate, Second time: ip × 10qd

CCOC(=O)c1cc2c3ccccc3n(CCCc3ccccc3)c2c(C)n1 [Compound 59, ethyl 9-phenylpropyl-1-methyl-β-carboline-3-carboxylate]
IC50 ([1]; Homo sapiens): 20 µM | IC50 ([2]; Homo sapiens, BGC-823): 40 µM | IC50 ([3]; Homo sapiens): 40 µM | IC50 ([4]; Homo sapiens, Bel-7402): 180 µM | IC50 ([5]; Homo sapiens): 40 µM | IC50 ([6]; Mus musculus): 30 µM | IC50 [7]: 110 µM | melting point: 101 to 102 °C

CCCc1nc(C(=O)O)cc2c3ccccc3n(C)c12 [Compound 72, 9-methyl-1-propyl-β-carboline-3-carboxylic acid]
IC50 ([1]; Homo sapiens): 210 µM | IC50 ([2]; Homo sapiens, BGC-823): 540 µM | IC50 ([3]; Homo sapiens): 1170 µM | IC50 ([4]; Homo sapiens, Bel-7402): > 3000 µM | IC50 ([5]; Homo sapiens): 960 µM | IC50 ([6]; Mus musculus): 570 µM | IC50 [7]: 1400 µM | melting point: 181 to 183 °C

CCCc1nc(C(=O)OCC)cc2c3ccccc3n(C)c12 [Compound 68, ethyl 1-propyl-9-methyl-β-carboline-3-carboxylate]
IC50 ([1]; Homo sapiens): 60 µM | IC50 ([2]; Homo sapiens, BGC-823): 110 µM | IC50 ([3]; Homo sapiens): 100 µM | IC50 ([4]; Homo sapiens, Bel-7402): 460 µM | IC50 ([5]; Homo sapiens): 1360 µM | IC50 ([6]; Mus musculus): 80 µM | IC50 [7]: 140 µM | melting point: 108 to 109 °C

COC(=O)c1cc2c3ccccc3n(Cc3ccccc3)c2cn1 [Compound 29, methyl 9-benzyl-β-carboline-3-carboxylate]
IC50 ([1]; Homo sapiens): 310 µM | IC50 ([2]; Homo sapiens, BGC-823): 950 µM | IC50 ([3]; Homo sapiens): 1770 µM | IC50 ([4]; Homo sapiens, Bel-7402): 60 µM | IC50 ([5]; Homo sapiens): 120 µM | IC50 ([6]; Mus musculus): 360 µM | IC50 [7]: 480 µM | melting point: 187 to 188 °C

CCCc1nc(C(=O)OCC)cc2c3ccccc3n(CC)c12 [Compound 69, ethyl 1-propyl-9-ethyl-β-carboline-3-carboxylate]
IC50 ([1]; Homo sapiens): 100 µM | IC50 ([2]; Homo sapiens, BGC-823): 230 µM | IC50 ([3]; Homo sapiens): 110 µM | IC50 ([4]; Homo sapiens, Bel-7402): 330 µM | IC50 ([5]; Homo sapiens): 90 µM | IC50 ([6]; Mus musculus): 100 µM | IC50 [7]: 710 µM | melting point: 86 to 87 °C

CCCCOC(=O)c1cc2c3ccccc3n(C)c2cn1 [Compound 38, butyl 9-methyl-β-carboline-3-carboxylate]
IC50 ([1]; Homo sapiens): 2520 µM | IC50 ([2]; Homo sapiens, BGC-823): > 3000 µM | IC50 ([3]; Homo sapiens): 1610 µM | IC50 ([4]; Homo sapiens, Bel-7402): > 3000 µM | IC50 ([5]; Homo sapiens): > 3000 µM | IC50 ([6]; Mus musculus): > 3000 µM | IC50 [7]: > 3000 µM | melting point: 235 to 238 °C

CCCCOC(=O)c1cc2c3ccccc3n(CCCC)c2cn1 [Compound 40, butyl 9-butyl-β-carboline-3-carboxylate]
IC50 ([1]; Homo sapiens): 40 µM | IC50 ([2]; Homo sapiens, BGC-823): 70 µM | IC50 ([3]; Homo sapiens): 1080 µM | IC50 ([4]; Homo sapiens, Bel-7402): 1080 µM | IC50 ([5]; Homo sapiens): 950 µM | IC50 ([6]; Mus musculus): 50 µM | IC50 [7]: 2120 µM | melting point: 94 to 95 °C

2,9-dibenzyl-3-ethoxycarbonyl-β-carbolinium bromate [Compound 86]
IC50 [1]: 20 µM | IC50 [2]: 40 µM | LD50 ([8]; 50% male 50% female mice, single i.p.): 65.7 mg/kg | LD50 ([8]; mouse, in vivo, ip): 58.2 to 74.1 mg/kg | LD50 ([8]; summary Table 34, present tests, mice i.p.): 65.7 | IC50 [3]: 40 µM | Body weight of the animals, end, First time ([9]; Dosage 10 (mg/ml)): 24.5 g | Body weight of the animals, end, Second time ([9]; Dosage 10 (mg/ml)): 25.1 g | Body weight of the animals, beginning, First time ([9]; Dosage 10, ip × 10qd): 20.2 g | Inhibition rate, First time ([9]; Dosage 10, ip × 10qd): 34.98% | Weight of the tumor X ± SD, First time ([9]; Dosage 10, ip × 10qd): 1.58 ± 0.11 g | Body weight of the animals, beginning, Second time ([9]; Dosage 10, ip × 10qd): 19.1 g | Inhibition rate, Second time ([9]; Dosage 10, ip × 10qd): 37.20% | Weight of the tumor X ± SD, Second time ([9]; Dosage 10, ip × 10qd): 1.84 ± 0.17 g | Body weight of the animals, end, First time ([9]; Dosage 20 (mg/ml)): 25.2 g | Body weight of the animals, end, Second time ([9]; Dosage 20 (mg/ml)): 23.9 g | Body weight of the animals, beginning, First time ([9]; Dosage 20, ip × 10qd): 20.0 g | Inhibition rate, First time ([9]; Dosage 20, ip × 10qd): 41.56% | Weight of the tumor X ± SD, First time ([9]; Dosage 20, ip × 10qd): 1.42 ± 0.11 g | Body weight of the animals, beginning, Second time ([9]; Dosage 20, ip × 10qd): 18.7 g | Inhibition rate, Second time ([9]; Dosage 20, ip × 10qd): 45.05% | Weight of the tumor X ± SD, Second time ([9]; Dosage 20, ip × 10qd): 1.61 ± 0.17 g | Inhibition rate (%) Lewis cancer ([9]; comparison table 43, in vivo): 41.56% | IC50 [4]: 50 µM | IC50 [5]: 30 µM | IC50 [6]: 20 µM | Body weight of the animals, beginning, First time ([10]; Dosage 10 (mg/ml)): 19.3 g | Body weight of the animals, end, First time ([10]; Dosage 10 (mg/ml)): 24.5 g | Inhibition rate, First time ([10]; Dosage 10 (mg/ml)): 31.09% | Weight of the tumor X ± SD, First time ([10]; Dosage 10 (mg/ml)): 1.84 ± 0.16 g | Body weight of the animals, beginning, Second time ([10]; Dosage 10 (mg/ml)): 18.7 g | Body weight of the animals, end, Second time ([10]; Dosage 10 (mg/ml)): 24.9 g | Inhibition rate, Second time ([10]; Dosage 10 (mg/ml)): 28.89% | Weight of the tumor X ± SD, Second time ([10]; Dosage 10, ip × 10qd): 1.92 ± 0.20 g | Body weight of the animals, beginning, First time ([10]; Dosage 20 (mg/ml)): 19.0 g | Body weight of the animals, end, First time ([10]; Dosage 20 (mg/ml)): 23.7 g | Inhibition rate, First time ([10]; Dosage 20 (mg/ml)): 38.95% | Weight of the tumor X ± SD, First time ([10]; Dosage 20 (mg/ml)): 1.63 ± 0.26 g | Body weight of the animals, beginning, Second time ([10]; Dosage 20 (mg/ml)): 18.9 g | Body weight of the animals, end, Second time ([10]; Dosage 20 (mg/ml)): 24.4 g | Inhibition rate, Second time ([10]; Dosage 20 (mg/ml)): 41.11% | Weight of the tumor X ± SD, Second time ([10]; Dosage 20, ip × 10qd): 1.59 ± 0.17 g | Inhibition rate (%) S180 sarcomata ([10]; comparison table 43, in vivo): 41.11% | IC50 [7]: 10 µM

CCOC(=O)c1cc2c3ccccc3n(Cc3ccccc3)c2c(C)n1 [Compound 58, ethyl 9-benzyl-1-methyl-β-carboline-3-carboxylate]
IC50 ([1]; Homo sapiens): 170 µM | IC50 ([2]; Homo sapiens, BGC-823): 2080 µM | IC50 ([3]; Homo sapiens): 2000 µM | IC50 ([4]; Homo sapiens, Bel-7402): 210 µM | IC50 ([5]; Homo sapiens): 250 µM | IC50 ([6]; Mus musculus): 1820 µM | IC50 [7]: 1390 µM | melting point: 155 to 156 °C

COC(=O)c1cc2c3ccccc3n(C)c2c(-c2ccccc2)n1 [Compound 76, methyl 1-phenyl-9-methyl-β-carboline-3-carboxylate]
IC50 ([1]; Homo sapiens): > 3000 µM | IC50 ([2]; Homo sapiens, BGC-823): > 3000 µM | IC50 ([3]; Homo sapiens): > 3000 µM | IC50 ([4]; Homo sapiens, Bel-7402): 620 µM | IC50 ([5]; Homo sapiens): > 3000 µM | IC50 ([6]; Mus musculus): > 3000 µM | IC50 [7]: > 3000 µM | melting point: 205 to 207 °C
